Results as given in ChEMBL document CHEMBL3885881, “DrugMatrix”.

Species: Rattus norvegicus
Assay: DrugMatrix - Regimen: Daily Repeat
Type: toxicity, organism-based, Sprague-Dawley
Set-up: regimen Daily Repeat, gender Male, age 6-8 weeks
Details: in vivo, po, route oral GAVAGE, vehicle 100 % WATER; for ABSOLUTE BASOPHIL / ABSOLUTE EOSINOPHIL / ABSOLUTE LYMPHOCYTE / ABSOLUTE MONOCYTE / ABSOLUTE SEGMENTED NEUTROPHIL / BASOPHIL / EOSINOPHIL / ERYTHROCYTE COUNT / HEMATOCRIT / HEMOGLOBIN / LEUKOCYTE COUNT / LYMPHOCYTE / MEAN CORPUSCULAR HEMOGLOBIN / MEAN CORPUSCULAR HEMOGLOBIN CONCENTRATION / MEAN CORPUSCULAR VOLUME / MONOCYTE / NEUTROPHIL / NUCLEATED RED BLOOD CELLS / PLATELET COUNT: tissue Blood; for ALANINE AMINOTRANSFERASE / ALBUMIN / ALKALINE PHOSPHATASE / ASPARTATE AMINOTRANSFERASE / BLOOD UREA NITROGEN / CARBON DIOXIDE / CHLORIDE / CHOLESTEROL / CREATINE PHOSPHOKINASE / CREATININE / GLUCOSE / LACTATE DEHYDROGENASE / LIPASE / PHOSPHORUS / POTASSIUM / SODIUM / TOTAL BILIRUBIN / TOTAL PROTEIN / URIC ACID: tissue Plasma
[1] = 500 mg/kg, 120 h, dose level Low, time 5 day
[2] = 2000 mg/kg, 72 h, dose level High, time 3 day
[3] = 2000 mg/kg, 120 h, dose level High, time 5 day

SMILES: NCCCCCC(=O)O [AMINOCAPROIC ACID]
- ABSOLUTE BASOPHIL [1]: 0 CELLS/uL
- ABSOLUTE EOSINOPHIL [1]: 0 CELLS/uL
- ABSOLUTE LYMPHOCYTE [1]: 13712 CELLS/uL
- ABSOLUTE MONOCYTE [1]: 316 CELLS/uL
- ABSOLUTE SEGMENTED NEUTROPHIL [1]: 872 CELLS/uL
- BASOPHIL [1]: 0%
- EOSINOPHIL [1]: 0%
- ERYTHROCYTE COUNT [1]: 5.42 x10E6/uL
- HEMATOCRIT [1]: 34.37%
- HEMOGLOBIN [1]: 13.87 G/DL
- LEUKOCYTE COUNT [1]: 14.9 x10E3/uL
- LYMPHOCYTE [1]: 92.33%
- MEAN CORPUSCULAR HEMOGLOBIN [1]: 25.67 pg
- MEAN CORPUSCULAR HEMOGLOBIN CONCENTRATION [1]: 40.37 G/DL
- MEAN CORPUSCULAR VOLUME [1]: 63.53 fL
- MONOCYTE [1]: 2%
- NEUTROPHIL [1]: 5.67%
- NUCLEATED RED BLOOD CELLS [1]: 0 /100WBC
- PLATELET COUNT [1]: 1257.67 x10E3/uL
- ALANINE AMINOTRANSFERASE [1]: 51.33 u/L
- ALBUMIN [1]: 4.4 G/DL
- ALKALINE PHOSPHATASE [1]: 417.33 u/L
- ASPARTATE AMINOTRANSFERASE [1]: 75.67 u/L
- BLOOD UREA NITROGEN [1]: 15.33 mg/dL
- CARBON DIOXIDE [1]: 26.67 mmol/L
- CHLORIDE [1]: 101.67 MEQ/L
- CHOLESTEROL [1]: 72.67 mg/dL
- CREATINE PHOSPHOKINASE [1]: 253.67 u/L
- CREATININE [1]: 0.15 mg/dL
- GLUCOSE [1]: 153.33 mg/dL
- LACTATE DEHYDROGENASE [1]: 102.33 u/L
- LIPASE [1]: 9 u/L
- PHOSPHORUS [1]: 11.07 mg/dL
- POTASSIUM [1]: 6.75 MEQ/L
- SODIUM [1]: 143.73 MEQ/L
- TOTAL BILIRUBIN [1]: 0.2 mg/dL
- TOTAL PROTEIN [1]: 6.1 G/DL
- URIC ACID [1]: 1.57 mg/dL
- ABSOLUTE BASOPHIL [2]: 0 CELLS/uL
- ABSOLUTE EOSINOPHIL [2]: 99.33 CELLS/uL
- ABSOLUTE LYMPHOCYTE [2]: 12832.33 CELLS/uL
- ABSOLUTE MONOCYTE [2]: 0 CELLS/uL
- ABSOLUTE SEGMENTED NEUTROPHIL [2]: 1535 CELLS/uL
- BASOPHIL [2]: 0%
- EOSINOPHIL [2]: 0.67%
- ERYTHROCYTE COUNT [2]: 5.61 x10E6/uL
- HEMATOCRIT [2]: 36.13%
- HEMOGLOBIN [2]: 14.13 G/DL
- LEUKOCYTE COUNT [2]: 14.47 x10E3/uL
- LYMPHOCYTE [2]: 88.67%
- MEAN CORPUSCULAR HEMOGLOBIN [2]: 25.17 pg
- MEAN CORPUSCULAR HEMOGLOBIN CONCENTRATION [2]: 39.1 G/DL
- MEAN CORPUSCULAR VOLUME [2]: 64.4 fL
- MONOCYTE [2]: 0%
- NEUTROPHIL [2]: 10.67%
- NUCLEATED RED BLOOD CELLS [2]: 0.33 /100WBC
- PLATELET COUNT [2]: 1333.33 x10E3/uL
- ALANINE AMINOTRANSFERASE [2]: 41.67 u/L
- ALBUMIN [2]: 4.27 G/DL
- ALKALINE PHOSPHATASE [2]: 386.67 u/L
- ASPARTATE AMINOTRANSFERASE [2]: 89 u/L
- BLOOD UREA NITROGEN [2]: 18 mg/dL
- CARBON DIOXIDE [2]: 22.67 mmol/L
- CHLORIDE [2]: 103 MEQ/L
- CHOLESTEROL [2]: 61.33 mg/dL
- CREATINE PHOSPHOKINASE [2]: 502 u/L
- CREATININE [2]: 0.2 mg/dL
- GLUCOSE [2]: 180 mg/dL
- LACTATE DEHYDROGENASE [2]: 295 u/L
- LIPASE [2]: 11 u/L
- PHOSPHORUS [2]: 11.37 mg/dL
- POTASSIUM [2]: 5.97 MEQ/L
- SODIUM [2]: 144.2 MEQ/L
- TOTAL BILIRUBIN [2]: 0.27 mg/dL
- TOTAL PROTEIN [2]: 5.77 G/DL
- URIC ACID [2]: 1.03 mg/dL
- ABSOLUTE BASOPHIL [3]: 0 CELLS/uL
- ABSOLUTE EOSINOPHIL [3]: 109 CELLS/uL
- ABSOLUTE LYMPHOCYTE [3]: 13720 CELLS/uL
- ABSOLUTE MONOCYTE [3]: 222 CELLS/uL
- ABSOLUTE SEGMENTED NEUTROPHIL [3]: 1882.33 CELLS/uL
- BASOPHIL [3]: 0%
- EOSINOPHIL [3]: 0.67%
- ERYTHROCYTE COUNT [3]: 5.57 x10E6/uL
- HEMATOCRIT [3]: 34.6%
- HEMOGLOBIN [3]: 13.8 G/DL
- LEUKOCYTE COUNT [3]: 15.93 x10E3/uL
- LYMPHOCYTE [3]: 86.33%
- MEAN CORPUSCULAR HEMOGLOBIN [3]: 24.83 pg
- MEAN CORPUSCULAR HEMOGLOBIN CONCENTRATION [3]: 39.87 G/DL
- MEAN CORPUSCULAR VOLUME [3]: 62.2 fL
- MONOCYTE [3]: 1.33%
- NEUTROPHIL [3]: 11.67%
- NUCLEATED RED BLOOD CELLS [3]: 0 /100WBC
- PLATELET COUNT [3]: 1463.33 x10E3/uL
- ALANINE AMINOTRANSFERASE [3]: 41.67 u/L
- ALBUMIN [3]: 4.27 G/DL
- ALKALINE PHOSPHATASE [3]: 291 u/L
- ASPARTATE AMINOTRANSFERASE [3]: 77 u/L
- BLOOD UREA NITROGEN [3]: 17.67 mg/dL
- CARBON DIOXIDE [3]: 25.33 mmol/L
- CHLORIDE [3]: 101 MEQ/L
- CHOLESTEROL [3]: 60.67 mg/dL
- CREATINE PHOSPHOKINASE [3]: 281 u/L
- CREATININE [3]: 0.15 mg/dL
- GLUCOSE [3]: 157.33 mg/dL
- LACTATE DEHYDROGENASE [3]: 298.67 u/L
- LIPASE [3]: 9.33 u/L
- PHOSPHORUS [3]: 10.73 mg/dL
- POTASSIUM [3]: 6.02 MEQ/L
- SODIUM [3]: 141.63 MEQ/L
- TOTAL BILIRUBIN [3]: 0.17 mg/dL
- TOTAL PROTEIN [3]: 6.07 G/DL
- URIC ACID [3]: 0.8 mg/dL
